Holding throughout (assay type): physicochemical
A short description of data set [1]: Water solubility of complex samples. As to conditions: at the concentrations required for the measurements. The text has this:
MnL2 and MnL3 complex samples for kinetic and relaxometric studies have been prepared by mixing MnCl2 and L2 or L3 solutions of known concentrations in a 1:1.05 ratio and by adjusting the pH to 7.4. Mn(II) concentration in each sample was verified by bulk magnetic susceptibility measurements.

Data set [2] is described as follows: 1H relaxivity (relaxometry, NMRD profiles). The settings on record: for r1 (relaxivity): 20 MHz, 0.47 T. As for the experimental part: At 60 MHz, ^1H longitudinal (T1) and transverse (T2) relaxation times were measured with a Bruker Minispec MQ-60 NMR analyzer. The temperature was set to 25.0 °C and controlled with a circulating water bath. T1 and T2 values were determined, respectively, by using the inversion recovery method (180−τ–90°) and the Carl–Purcell–Meiboom–Gill (CPMG) spin–echo pulse sequence. […]
^1H NMRD profiles on aqueous solutions of MnL2 (cMn2+ = 0.98 mM; pH = 7.22) and MnL3 (cMn2+ = 0.96 mM; pH = 7.20) were recorded at 25 and 37 °C on a SMARTracer Fast Field Cycling NMR relaxometer (Stelar; 0.00024–0.24 T, 0.01–10 MHz ^1H Larmor frequency) and a WP80 NMR electromagnet adapted to variable-field measurements (Bruker; 0.47–1.88 T, 20–80 MHz ^1H Larmor frequency). The temperature was maintained by a gas flow and monitored by a VTC91 temperature control unit based on previous calibration with a Pt resistance temperature probe.

Data set [3] is described as follows: Dissociation kinetics of Mn(II) complexes, transmetalation with Zn(II) (T2 relaxation). As for the experimental part: The transmetalation reaction of MnL2 and MnL3 (1.4 mM) was monitored in the presence of 10, 20, 30, and 40 mol equiv of Zn(II) ions, by measuring water proton T2 relaxation times (60 MHz) as a function of time at 25 °C and in 0.15 M NaCl, in the pH range 4.9–6.0 (4.9, 5.0, 5.2, 5.5, and 6.0). To control pH, 50 mM N-methyl-piperazine (pH 4.9–5.5) or 50 mM MES (2-(4-morpholino)ethane-sulfonic acid) buffer (pH 5.7–6.0) was used. Transmetalation of MnL2 (0.3 mM) was also investigated in the presence of 10, 20, 30, and 40 mol equiv of Cu(II) ions, by monitoring the UV–vis absorbance at 274.0 nm as a function of time at 25 °C and in 0.15 M NaCl, in the pH range 4.7–5.0 (in 75 mM 1,4-dimethyl piperazine (DMP) buffer). No oxidation of the samples was observed. The program OriginPro 9 was used for the fitting of experimental data.
The dissociation kinetics was followed through monitoring Mn(II) release by water proton T2 measurements, at pH […], in the presence of 10- to 40-fold excess of Zn(II) and through UV–vis measurements in the presence of 10- to 40-fold excess of Cu(II) at pH 4.7–5.0 (only for MnL2). The observed dissociation rate constants, kobs, increase with increasing H^+ ion concentration (Figures 4, left and S20). They remain independent of Zn(II) concentration (Figures S18 and S19), but do show dependence on Cu(II) concentration (Figure S21).
In excess of the exchanging metal ion, the reaction is of pseudo-first order, and the rate is proportional to the total MnL2 or MnL3 concentration (eq 1), where kobs is the pseudo-first-order rate constant. [drawing 4] 1 In general, different dissociation pathways can coexist, implying the participation of protons and/or the exchanging metal ion,[47] as illustrated in Figure 5.
Based on this scheme, the overall rate for either Zn(II) or Cu(II) transmetalation can be given by eq 2, where M = Zn^2+ or Cu^2+ (for clarity, charges of the complexes are omitted). [drawing 5] 2 Here, the first and second terms correspond to the spontaneous dissociation of the nonprotonated and the monoprotonated complexes, respectively, the third term describes the proton-assisted dissociation of the monoprotonated complex, and the last two terms refer to the spontaneous dissociation of the dinuclear complex and metal-assisted dissociation of the monoprotonated MnL2 or MnL3 complex. [MnL]tot describes the total concentration of Mn(II) chelates ([MnL]tot = [MnL] + [MnHL] + [ZnLMn]). Since no obvious Zn(II) dependence (for any of the two systems) was observed, only the spontaneous and proton-assisted dissociation pathways were taken into consideration. Consequently, the observed rate constants can be expressed as in eq 3 with k0 = kMnL, k1 = kMnHL·KMnHL, and k2 = ^HkMnHL·KMnHL. [drawing 6] 3 The kobs rate constants were fitted to eq 3, and the calculated parameters are listed in Table 5 for the Zn(II) exchange. During the fitting procedure, KMnHL was fixed to the value obtained from the pH-potentiometric titrations.

Where [4] appears, read: Zn(II) transmetalation, 25 °C, 0.15 M NaCl, pH 4.9–6.0.

Consider `O.[Mn+2].c1cc2nc(c1)CN(Cc1nc3ccccc3[nH]1)CCOCCOCCNC2` [MnL3], for which the water solubility result in data set [1] is reported as “water-soluble”. The “r1 (relaxivity)” value is recorded as ~2.5 mM^–1 s^–1 in data set [2] (25 °C); 2.77 mM^–1 s^–1 in data set [2] (25 °C, listed as [Mn(L3)(H2O)]^+); 2.24 mM^–1 s^–1 in data set [2] (37 °C). For the same molecule, the “k0 (spontaneous dissociation of the nonprotonated complex)” value in data set [3] (setting [4]) was “(1.9 ± 0.3) × 10^–3 s^–1”.
As for `O.[Mn+2].c1ccc(CN2CCOCCOCCNCc3cccc(n3)C2)nc1` [MnL2], the water solubility result in data set [1] is reported as “water-soluble”. Moreover, in data set [2] (1.41 T and 25 °C, pH 7 to 11), the “relaxivity (constant between pH 7 and 11)” value is listed as 2.62 mM^–1 s^–1. In addition, the “r1 (relaxivity)” value is given as ~2.5 mM^–1 s^–1 in data set [2] (25 °C); 2.49 mM^–1 s^–1 in data set [2] (25 °C, listed as [Mn(L2)(H2O)]^+); 1.98 mM^–1 s^–1 in data set [2] (37 °C). In addition, the “dissociation half-life t1/2” value in data set [3] (Mn(II) complex, t1/2 = ln 2/kobs calculated for pH 7.4, Zn(II)) is recorded as 10.4 min. Also, the “k0 (spontaneous dissociation of the nonprotonated complex)” value in data set [3] (setting [4]) is given as “(1.1 ± 0.3) × 10^–3 s^–1”. In addition, the “k2 (proton-assisted dissociation of the monoprotonated complex)” value in data set [3] (setting [4]) is “(4.5 ± 0.8) × 10^7 M^–2 s^–1”.

The values are drawn from article PMC12042267, “Expanding the Family of Monosubstituted 15-Membered Pyridine-Based Macrocyclic Ligands for Mn(II) Complexation in the Context of MRI” (Inorganic Chemistry, 2025).
